Experimental data published in BindingDB's records for doi:10.1021/jm400639z (Duquesne University, 2013).

Key:
[1] = Inhibition of p-gp overexpressed in human SKOV3/M6-6 isogenic cells after 48 hrs by sulforhodamine B assay
[2] = Inhibition of beta3 tubulin overexpressed in human HeLa cells after 48 hrs by SRB assay

IC50 [1] | IC50 [2] | SMILES
16 nM | 8.2 nM | COc1ccc(N(C)c2nc(C)nc3c2CCC3)cc1
44 nM | 24 nM | COc1ccc(N(C)c2nc(C)nc3c2CC(C)C3)cc1 (stereo not given)

SMILES | IC50 [1] | IC50 [2]
COc1ccc(/C=C\c2cc(OC)c(OC)c(OC)c2)cc1O [combretastin A4] | 6.6 nM | 
